EC50 data for 40 compounds are collected here from US9714231B2, “Pyrrolidine GPR40 modulators” (BRISTOL-MYERS SQUIBB COMPANY, priority 2012, dated 2017).

Structures can show the parent of a compound that is named as a salt.

The test deals with human GPR40 (Homo sapiens, UniProt O14842). Put plainly: FDSS-based intracellular calcium assay (Human GRP40 in vitro assay). It counts as cell-based. More on the design: 3xFLAG; expressed in transfected cells. The settings on record: cells expressing GPR40, intracellular Ca2+ response, FDSS reader; read-out: hGPR40 EC50. On the procedure: To conduct the fluorescent imaging plate reader (FLIPR)-based calcium flux assay to measure intracellular Ca^2+ response, cells expressing GPR40 are plated on 384 well plates (BD BIOCOAT® #356697) at a density of 20,000 cells/20 μL medium per well in phenol red and serum-free DMEM (GIBCO® #21063-029) and incubated overnight. Using BD kit #s 80500-310 or -301, the cells are incubated with 20 μL per well of Hank's buffered salt solution with 1.7 mM probenecid and Fluo-3 at 37° C. for 30 min. Compounds are dissolved in DMSO and diluted to desired concentrations with assay buffer and added to the cells as 3× solution (20 μL per well). Run fluorescence/luminescence reader FDSS (Hamamatsu) to read intracellular Ca^2+ response.
human GPR40, sequence (O14842 whole entry): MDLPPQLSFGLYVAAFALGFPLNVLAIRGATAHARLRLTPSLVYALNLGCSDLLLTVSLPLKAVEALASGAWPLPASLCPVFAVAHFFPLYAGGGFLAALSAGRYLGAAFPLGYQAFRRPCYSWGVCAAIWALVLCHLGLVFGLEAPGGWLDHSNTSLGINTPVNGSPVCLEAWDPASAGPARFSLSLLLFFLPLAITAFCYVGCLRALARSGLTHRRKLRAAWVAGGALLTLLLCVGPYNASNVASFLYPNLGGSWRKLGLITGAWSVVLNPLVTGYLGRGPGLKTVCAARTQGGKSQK
(In general: A change in cytosolic calcium serves as a functional read-out for many receptors and channels.)
A word on the EC50: it is the concentration giving half of the maximal effect. Take `COc1ccc(F)c(N2CCC(Oc3ccc(N4C[C@H](C(F)(F)F)C[C@@H]4CC(=O)O)cc3)C2)c1` (single isomer, unassigned) [Example 12, Isomer 1, HCl]: the EC50 amounted to 2800 nM. The value for `COc1ccc(F)c(N2CCC(Oc3ccc(N4C[C@H](C(F)(F)F)C[C@@H]4CC(=O)O)cc3)C2)c1` (single isomer, unassigned) [Example 12, Isomer 2, HCl] was 5400 nM; that for `COc1ccc(F)c(N2CCC(Oc3ccc(N4C[C@H](OC)C[C@@H]4CC(=O)O)cc3)CC2C)c1` (single isomer, unassigned) [Example 13, Isomer 1, HCl] was 710 nM. With `COc1ccc(F)c(N2CCC(Oc3ccc(N4C[C@H](OC)C[C@@H]4CC(=O)O)cc3)CC2C)c1` (single isomer, unassigned) [Example 13, Isomer 2, HCl], the EC50 was 160 nM.

In the case of `COc1ccc(F)c(N2CCC(Oc3ccc(N4C[C@H](OC)C[C@@H]4CC(=O)O)cc3)C(C)C2)c1` (single isomer, unassigned) [Example 17, Isomer 1], the 50% effective concentration (EC50) was 340 nM. Regarding `COc1ccc(F)c(N2CCC(Oc3ccc(N4C[C@H](OC)C[C@@H]4CC(=O)O)cc3)C(C)C2)c1` (single isomer, unassigned) [Example 17, Isomer 2], the half-maximal effective concentration (EC50) was determined as 64 nM. Regarding `COc1ccc(F)c(N2CCC(Oc3ccc(N4CC(C(F)(F)F)C(C)C4CC(=O)O)cc3)CC2)c1` (single isomer, unassigned) [Example 26, Isomer 2, 2-((2,3-trans,3,4-trans)-1-(4-((1-(2-Fluoro-5-methoxyphenyl)piperidin-4-yl)oxy)phenyl)-3-methyl-4-(trifluoromethyl)pyrrolidin-2-yl)acetic acid, HCl], the half-maximal effective concentration (EC50) is 8400 nM. Regarding `COc1cc(N2CCC(Oc3ccc(N4C[C@H](C(F)(F)F)C[C@@H]4CC(=O)O)cc3)C(C)C2)c(Cl)cn1` (single isomer, unassigned) [Example 27, Isomer 1, HCl], the EC50 is 440 nM. With `COc1cc(N2CCC(Oc3ccc(N4C[C@H](C(F)(F)F)C[C@@H]4CC(=O)O)cc3)C(C)C2)c(Cl)cn1` (single isomer, unassigned) [Example 27, Isomer 2, HCl], the concentration giving a half-maximal response (EC50) came out at 130 nM. `COc1cc(N2CCC(Oc3ccc(N4C[C@H](C(F)(F)F)C[C@@H]4CC(=O)O)cc3)C(F)C2)c(Cl)cn1` (single isomer, unassigned) [Example 28, Isomer 1, HCl]: the EC50 amounted to 330 nM. Consider `COc1cc(N2CCC(Oc3ccc(N4C[C@H](C(F)(F)F)C[C@@H]4CC(=O)O)cc3)C(F)C2)c(Cl)cn1` (single isomer, unassigned) [Example 28, Isomer 2, HCl], for which the half-maximal effective concentration (EC50) came out at 210 nM. For the compound `CCOc1ccc(F)c(N2CCC(Oc3ccc(N4C[C@H](C(F)(F)F)C[C@@H]4CC(=O)O)cc3)C(CC)C2)c1` (single isomer, unassigned) [Example 33, Isomer 1, HCl], the 50% effective concentration (EC50) was found to be 1900 nM. Take `CCOc1ccc(F)c(N2CCC(Oc3ccc(N4C[C@H](C(F)(F)F)C[C@@H]4CC(=O)O)cc3)C(CC)C2)c1` (single isomer, unassigned) [Example 33, Isomer 2, HCl]: the half-maximal effective concentration (EC50) came to 430 nM. As for `CCOc1ccc(F)c(N2CCC(Oc3ccc(N4C[C@H](C(F)(F)F)C[C@@H]4CC(=O)O)cc3)C(CC(C)C)C2)c1` (single isomer, unassigned) [Example 35, Isomer 1, HCl], the concentration for a half-maximal effect (EC50) was 1800 nM. The same measure for `CCOc1ccc(F)c(N2CCC(Oc3ccc(N4C[C@H](C(F)(F)F)C[C@@H]4CC(=O)O)cc3)C(Cc3ccccc3)C2)c1` (single isomer, unassigned) [Example 36, Isomer 1, HCl]: 6000 nM. The same measure for `CCOc1ccc(F)c(N2CCC(Oc3ccc(N4C[C@H](C(F)(F)F)C[C@@H]4CC(=O)O)cc3)C(Cc3ccccc3)C2)c1` (single isomer, unassigned) [Example 36, Isomer 2, HCl]: 740 nM; for `CCOc1ccc(F)c(N2CCC(Oc3ccc(N4C[C@H](C(F)(F)F)C[C@@H]4CC(=O)O)cc3)C(C)C2C)c1` (single isomer, unassigned) [Example 44, Isomer 1, HCl]: 500 nM; for `CCOc1ccc(F)c(N2CCC(Oc3ccc(N4C[C@H](C(F)(F)F)C[C@@H]4CC(=O)O)cc3)C(C)C2C)c1` (single isomer, unassigned) [Example 44, Isomer 2, HCl]: 505 nM. For the compound `COc1ccc(F)c(N2CCC(Oc3ccc(N4CCCC4CC(=O)O)cc3)CC2)c1` (single isomer, unassigned) [Example 48, Isomer 1, 2-(1-(4-((1-(2-Fluoro-5-methoxyphenyl)piperidin-4-yl)oxy)phenyl)pyrrolidin-2-yl)acetic acid], the concentration giving a half-maximal response (EC50) came to 4100 nM. For the compound `COc1ccc(F)c(N2CCC(Oc3ccc(N4CC(F)(F)C[C@@H]4CC(=O)O)cc3)C(C)C2)c1` (single isomer, unassigned) [Example 53, Isomer 1, HCl], the half-maximal effective concentration (EC50) worked out at 410 nM. Take `COc1ccc(C)c(N2CCC(Oc3ccc(N4C[C@H](OC)C[C@@H]4CC(=O)O)cc3)C(C)C2)c1` (single isomer, unassigned) [Example 64, Isomer 1]: the EC50 was 240 nM. As for `COc1ccc(C)c(N2CCC(Oc3ccc(N4C[C@H](OC)C[C@@H]4CC(=O)O)cc3)C(C)C2)c1` (single isomer, unassigned) [Example 64, Isomer 2], the 50% effective concentration (EC50) worked out at 120 nM. In the case of `COc1ccc(C2CCCC2(C)C)c(N2CCC(Oc3ccc(N4C[C@H](OC)C[C@@H]4CC(=O)O)cc3)CC2)c1` (single isomer, unassigned) [Example 65, Isomer 2], the EC50 is 120 nM. Consider `COc1cc(N2CCC(Oc3ccc(N4C[C@H](OC)C[C@@H]4CC(=O)O)cc3)C(C)C2)c(F)cn1` (single isomer, unassigned) [Example 83, Isomer 1], for which the concentration for a half-maximal effect (EC50) came out at 4800 nM. As to `COc1cc(N2CCC(Oc3ccc(N4C[C@H](OC)C[C@@H]4CC(=O)O)cc3)C(C)C2)c(F)cn1` (single isomer, unassigned) [Example 83, Isomer 2], the EC50 is 370 nM. `COc1cc(N2CCC(Oc3ccc(N4C[C@H](OC)C[C@@H]4CC(=O)O)cc3)C(C)C2)c(Cl)cn1` (single isomer, unassigned) [Example 84, Isomer 1, TFA]: the EC50 came to 730 nM. For `COc1cc(N2CCC(Oc3ccc(N4C[C@H](OC)C[C@@H]4CC(=O)O)cc3)C(C)C2)c(Cl)cn1` (single isomer, unassigned) [Example 84, Isomer 2, TFA], the EC50 is 180 nM. Regarding `COc1cc(N2CCC(Oc3ccc(N4C[C@H](OC)CC4CC(=O)O)c(F)c3F)C(C)C2)c(Cl)cn1` (single isomer, unassigned) [Example 141, Isomer 1], the EC50 worked out at 410 nM. Regarding `COc1cc(N2CCC(Oc3ccc(N4C[C@H](OC)CC4CC(=O)O)c(F)c3F)C(C)C2)c(Cl)cn1` (single isomer, unassigned) [Example 141, Isomer 2], the half-maximal effective concentration (EC50) was 5600 nM.

Regarding `COc1cc(N2CCC(Oc3ccc(N4C[C@H](OC)CC4CC(=O)O)c(F)c3F)C(C)C2)c(Cl)cn1` (single isomer, unassigned) [Example 141, Isomer 3], the concentration giving a half-maximal response (EC50) was 4700 nM. For the compound `COc1cc(N2CCC(Oc3ccc(N4C[C@H](OC)[C@@H](F)[C@@H]4CC(=O)O)cc3)C(C)C2)c(Cl)cn1` (single isomer, unassigned) [Example 147, Isomer 1, HCl], the concentration giving a half-maximal response (EC50) was found to be 170 nM.

For `COc1cc(N2CCC(Oc3ccc(N4C[C@H](OC)[C@@H](C)[C@@H]4CC(=O)O)cn3)C(C)C2)c(C2CCCC2(C)C)cn1` (single isomer, unassigned) [Example 150, Isomer 1, HCl], the concentration giving a half-maximal response (EC50) was 320 nM. As to `COc1cc(N2CCC(Oc3ccc(N4C[C@H](OC)[C@@H](C)[C@@H]4CC(=O)O)cn3)C(C)C2)c(C2CCCC2(C)C)cn1` (single isomer, unassigned) [Example 150, Isomer 2, HCl], the EC50 was 110 nM. For the compound `COc1cc(N2CCC(Oc3ccc(N4C[C@H](OC)[C@@H](C)[C@@H]4CC(=O)O)cn3)CC2)c(C2CCCC2(C)C)cn1` (single isomer, unassigned) [Example 151, Isomer 2, HCl], the EC50 was determined as 140 nM. The value for `COc1cc(N2CCC(Oc3ccc(N4C[C@H](OC)[C@@H](C)[C@@H]4CC(=O)O)cc3)C(C)C2)c(F)cc1F` (single isomer, unassigned) [Example 169, Isomer 1] was 3500 nM.

Turning to `COc1cc(N2CCC(Oc3ccc(N4C[C@H](OC)[C@@H](C)[C@@H]4CC(=O)O)cc3)C(C)C2)c(F)cc1F` (single isomer, unassigned) [Example 169, Isomer 2], the concentration giving a half-maximal response (EC50) worked out at 450 nM. As to `COCC1CN(c2cc(OC)ncc2Cl)CCC1Oc1ccc(N2C[C@H](C(F)(F)F)C[C@@H]2CC(=O)O)cc1` (single isomer, unassigned) [Example 172, Isomer 1, TFA], the EC50 came out at 1800 nM. As to `COCC1CN(c2cc(OC)ncc2Cl)CCC1Oc1ccc(N2C[C@H](C(F)(F)F)C[C@@H]2CC(=O)O)cc1` (single isomer, unassigned) [Example 172, Isomer 2, TFA], the EC50 stood at 460 nM. As for `CCO[C@@H]1C[C@H](CC(=O)O)N(c2ccc(OC3CCN(c4cc(OC)ccc4F)CC3)cc2)C1` [Example 2, 2-((2R,4R)-4-Ethoxy-1-(4-((1-(2-fluoro-5-methoxyphenyl)piperidin-4-yl)oxy)phenyl)pyrrolidin-2-yl)acetic acid, HCl], the concentration for a half-maximal effect (EC50) is 120 nM. Turning to `COc1ccc(F)c(N2CCC(Oc3ccc(N4C[C@H](c5ccccc5)C[C@@H]4CC(=O)O)cc3)CC2)c1` [Example 3, 2-((2R,4S)-1-(4-((1-(2-Fluoro-5-methoxyphenyl)piperidin-4-yl)oxy)phenyl)-4-phenylpyrrolidin-2-yl)acetic acid, HCl], the EC50 is 210 nM.
